SMILES strings stand for the structures.

The target of the test is T1, Cysteine protease ATG4B (Homo sapiens, UniProt Q9Y4P1).
T1 sequence (Q9Y4P1 whole entry): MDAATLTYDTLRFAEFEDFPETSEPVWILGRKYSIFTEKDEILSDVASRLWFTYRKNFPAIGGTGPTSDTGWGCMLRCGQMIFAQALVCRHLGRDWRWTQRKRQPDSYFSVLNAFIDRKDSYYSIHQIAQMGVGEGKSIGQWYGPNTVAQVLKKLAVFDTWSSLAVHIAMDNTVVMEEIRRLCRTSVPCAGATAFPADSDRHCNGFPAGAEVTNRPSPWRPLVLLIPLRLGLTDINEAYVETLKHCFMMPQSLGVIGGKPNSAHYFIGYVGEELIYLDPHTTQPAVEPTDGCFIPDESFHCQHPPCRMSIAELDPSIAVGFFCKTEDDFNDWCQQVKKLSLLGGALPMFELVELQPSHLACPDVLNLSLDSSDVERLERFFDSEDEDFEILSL
Description: ATG4B protease inhibitors, dose response, biochemical, fluorescence, set 2 (AID 588584).
One may read the IC50 as the concentration at which inhibition is half-maximal. A lower IC50 goes with higher potency. Consider `CC1=CC(/C=N/n2c(COc3ccccc3)nc3ccccc3c2=O)C(=O)C([N+](=O)[O-])=C1` (stereo not drawn) [3-[[(E)-(3-methyl-5-nitro-6-oxocyclohexa-2,4-dien-1-ylidene)methyl]amino]-2-(phenoxymethyl)quinazolin-4-one], for which half-maximal inhibition (IC50) was put at 22.8 µM.

For `Cc1ccc(NC2=NC(=O)C(=Cc3c(C)[nH]c4ccccc34)S2)cc1` [5-[(2-methyl-1H-indol-3-yl)methylene]-2-[(4-methylphenyl)imino]-1,3-thiazolidin-4-one], the 50% inhibitory concentration (IC50) was 30.6 µM.

In turn, `Oc1ccc2ccccc2c1CN=Nc1nnc(-c2ncc[nH]2)c2ccccc12` [SMR000151639] yielded a half-inhibitory concentration (IC50) of 5.4 µM.

Source of the values: BindingDB's records for doi:10.7270/Q21V5CG8 (Burnham Center For Chemical Genomics, 2011).
